Measured values as given in patent US20240101573A1, “MACROCYCLIC K-RAS G12C INHIBITOR, PREPARATION METHOD THEREFOR AND USE THEREOF” (Abbisko Therapeutics Co., Ltd., priority 2020, published 2024).

Columns and labels:
MIA PaCa-2 = experiment: Anti-proliferation 2D CTG test (MIA PaCa-2); type: cell-based; details: MIAPACA-2 cells, 500 cells/well, 5 days incubation with compound, CTG readout
Summary of the method: (§1)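 H358 (1500 cells/well) and MIA PaCa-2 (500 cells/well) seeded overnight, then treated 5 days at 37 °C with 10-point 1:3 dilutions, top final […], 0.5% DMSO. Viability by CellTiter-Glo luminescence; IC50 from four-parameter fit normalized to plate controls.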

H358 = experiment: Anti-proliferation 2D CTG test (H358); type: cell-based; details: H358 cells, 1500 cells/well, 5 days incubation with compound, CTG readout
Summary of the method: as §1

[1] = Homo sapiens, MIA PaCa-2, 120 h

Row | Structure (SMILES) | IC50 (MIA PaCa-2; [1]) [nM] | IC50 (H358; Homo sapiens, NCI-H358, 120 h) [nM] | IC50 (MIA PaCa-2) [nM] | IC50 (H358) [nM]
1 | C=CC(=O)N1CCN(c2nc(=O)n3c4nc(c(F)cc24)-c2c(F)cccc2OCC(OC(C)=O)C(OC(C)=O)c2ccnc(C(C)C)c2-3)[C@@H](C)C1 (stereo partly drawn) [Example 18, 2^4-((S)-4-acryloyl-2-methylpiperazin-1-yl)-2^6,3^6-difluoro-1^2-isopropyl-2^2-oxo-2^1,2^2-dihydro-4-oxa-2(1,7)-pyrido[2,3-d]pyrimidina-1(3,4)-pyridina-3(1,2)-benzocycloheptane-6,7-diyl diacetate] | 6 | 14 |  | 
2 | C=CC(=O)N1CCN(c2nc(=O)n3c4nc(c(F)cc24)-c2c(F)cccc2OCC2OC(C)(C)OC2c2ccnc(C(C)C)c2-3)[C@@H](C)C1 (stereo partly drawn) [Example 63, 11-((S)-4-acryloyl-2-methylpiperazin-1-yl)-15,21-difluoro-7-isopropyl-2,2-dimethyl-3a,20a-dihydro-9H,20H-12,14-(eiethane[1,2]diylidene)benzo[b][1,3]dioxazolo[4,5-j]pyrido[3,4-h]pyrimido[6,1-f][1]oxa[5,7]diazacyclododecin-9-one] | 4 | 4 |  | 
3 | C=CC(=O)N1CCN(c2nc(=O)n3c4nc(c(F)cc24)-c2c(F)cccc2OCC2OC(=O)OC2c2ccnc(C(C)C)c2-3)[C@@H](C)C1 (stereo partly drawn) [Example 62, 11-((S)-4-acryloyl-2-methylpiperazin-1-yl)-15,21-difluoro-7-isopropyl-3a,20a-dihydro-9H,20H-12,14-(epiethane[1,2]diylidene)benzo[b][1,3]dioxazolo[4,5-j]pyrido[3,4-h]pyrimido[6,1-f][1]oxa[5,7]diazacyclodidecyne-2,9-dione] | 16 | 20 |  | 
4 | C=CC(=O)N1CCN(c2nc(=O)n3c4nc(c(F)cc24)-c2c(F)cccc2OCC(O)C(=O)c2ccnc(C(C)C)c2-3)[C@@H](C)C1 (stereo partly drawn) [Example 4, 2^4-((S)-4-acryloyl-2-methylpiperazin-1-yl)-2^6,3^6-difluoro-6-hydroxy-1^2-isopropyl-2^1,2^2-dihydro-4-oxa-2(1,7)-pyrido[2,3-d]primidina-1(3,4)-pyridina-3(1,2)-benzocycloheptane-2^2,7-dione] | 83 | 73 |  | 
5 | C=CC(=O)N1CCN(c2nc(=O)n3c4nc(c(F)cc24)-c2c(F)cccc2OCC(OCOC(=O)OC)C(OCOC(=O)OC)c2ccnc(C(C)C)c2-3)[C@@H](C)C1 (stereo partly drawn) [Example 17, ((2^4-((S)-4-acryloyl-2-methylpiperazin-1-yl)-2^6,3^6-difluoro-1^2-isopropyl-2^2-oxo-2^1,2^2-dihydro-4-oxa-2(1,7)-pyrido[2,3-d]pyrimidina-1(3,4)-pyridina-3(1,2)-benzocycloheptane-6,7-diyl)di(oxo))di(methylene) dimethyldi(carbonate)] | 9 | 9 |  | 

More lines, now with the values ahead:

Row | IC50 (MIA PaCa-2; [1]) [nM] | IC50 (H358; Homo sapiens, NCI-H358, 120 h) [nM] | IC50 (MIA PaCa-2) [nM] | IC50 (H358) [nM] | Structure (SMILES)
6 |  |  | 218 | 221 | C=CC(=O)N1CCN(c2nc(=O)n3c4nc(c(F)cc24)-c2c(F)cccc2OCC(OC(C)C)C(O)c2ccnc(C(C)C)c2-3)[C@@H](C)C1 (stereo partly drawn) [Example 56, (S)-2^4-((S)-4-acryloyl-2-methylpiperazin-1-yl)-6-isopropoxy-2^6,3^6-difluoro-7-hydroxy-1^2-isopropyl-2^1,2^2-dihydro-4-oxa-2(1,7)-pyrido[2,3-d]pyrimidina-1(3,4)-pyridina-3(1,2)-benzocycloheptane-2^2-one]
7 |  |  | 3 | 5 | C=CC(=O)N1C[C@H](C)N(c2nc(=O)n3c4nc(c(F)cc24)-c2c(ccc(Cl)c2F)OCC(OCC)C(O)c2ccnc(C(C)C)c2-3)C[C@H]1C (stereo partly drawn) [Example 78, (R)-2^4-((2S,5R)-4-acryloyl-2,5-dimethylpiperazin-1-yl)-3^5-chloro-6-ethoxy-2^6,3^6-difluoro-7-hydroxy-1^2-isopropyl-2^1,2^2-dihydro-4-oxa-2(1,7)-pyrido[2,3-d]pyrimidina-1(3,4)-pyridina-3(1,2)-benzocycloheptane-2^2-one]
8 |  |  | 3 | 8 | C=CC(=O)N1C[C@H](C)N(c2nc(=O)n3c4nc(c(F)cc24)-c2c(ccc(Cl)c2F)OCC(OCC)C(O)c2ccnc(C(C)C)c2-3)C[C@H]1C (stereo partly drawn) [Example 71, 2^4-((2S,5R)-4-acryloyl-2,5-dimethylpiperazin-1-yl)-3^5-chloro-6-ethoxy-2^6,3^6-difluoro-7-hydroxy-1^2-isopropyl-2^1,2^2-dihydro-4-oxa-2(1,7)-pyrido[2,3-d]pyrimidina-1(3,4)-pyridina-3(1,2)-benzocycloheptane-2^2-one]
9 |  |  | 2 | 3 | C=CC(=O)N1CCN(c2nc(=O)n3c4nc(c(F)cc24)-c2c(F)cccc2OCC(O)C(OC)c2ccnc(C(C)C)c2-3)[C@@H](C)C1 (stereo partly drawn) [Example 41, (R)-2^4-((S)-4-acryloyl-2-methylpiperazin-1-yl)-7-methoxy-2^6,3^6-difluoro-6-hydroxy-1^2-isopropyl-2^1,2^2-dihydro-4-oxa-2(1,7)-pyrido[2,3-d]pyrimidina-1(3,4)-pyridina-3(1,2)-benzocycloheptane-2^2-one]
